Where two headings read alike, the source gives them in different places.
What was measured:
[1] = target: T1, WEE1 (Homo sapiens, UniProt P30291+Q96SW2); assay: WEE1-ePL degradation assay (LentiX-WEE1-ePL-GSPT1-ND cells, InCELL Hunter luminescence, 4 h); type: cell-based; conditions: 293T-LentiX WEE1-ePL cells; for DC50: read-out: 293T-LentiX WEE1-ePL Degradation 4 hr (EC50)
T1 construct: C-terminal ePL-tagged (DiscoverX, Fremont, CA) full-length WEE1 expression construct; expressed in transfected cells; host or cells: LentiX-HEK293T (Invitrogen), lentiviral transduction; co-expressing GSPT1-GN (G576N, lacking the first 158 amino acids)
Summary of the method: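 LentiX-HEK293T cells stably expressing C-terminally ePL-tagged full-length WEE1 were treated with compounds in a 10-point, 3-fold dilution series starting at 1 uM or 10 uM for 4 h at 37 °C. Remaining WEE1-ePL was detected by InCELL Hunter luminescence, and EC50, Ymin and Ymax came from a four-parameter logistic fit against DMSO control.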

[2] = test system: MKN45 cells; assay: MKN45 cell proliferation assay (Cell-Titer-Glo, 120 h); type: cell-based; conditions: for EC50: Homo sapiens, MKN-45, 120 h, Cell-Titer-Glo, read-out: MKN45 Cell Prolif. 120 hr (EC50); for MKN45 Cell Prolif. 120 hr (Ymin-Obs): minimal percent of DMSO control observed in the concentrations tested
Summary of the method: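 Growth inhibition was read as blank-corrected Cell-Titer-Glo luminescence expressed as percent DMSO control after 120 h at 37 C, 400 cells/well. Compounds tested in triplicate as 10-point half-log series from 1 or 10 uM, 0.1% DMSO; four-parameter fit gave EC50, and lowest observed percent control was reported as Ymin-obs.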

[3] = lower limit of the fit (0 = luciferase inhibitor, Ymax = DMSO control)
[4] = lower limit of the fit (Ymin=0 luciferase inhibitor, Ymax DMSO control)

Cc1ccc2cc(CN3CC[C@H](Oc4ccc5c(c4)CN(C4CCC(=O)NC4=O)C5=O)[C@@H]3C)ccc2n1 (stereo partly drawn) [3-(5-{[(2S,3S)-2-methyl-1-[(2-methylquinolin-6-yl)methyl]pyrrolidin-3-yl]oxy}-1-oxo-2,3-dihydro-1H-isoindol-2-yl)piperidine-2,6-dione]
293T-LentiX WEE1-ePL Degradation 4 hr (Ymin) [1, 3]: 99.5
EC50 ([2]; growth inhibition): > 10000 nM
MKN45 Cell Prolif. 120 hr (Ymin-Obs) [2]: 87.455

O=C1CCC(N2Cc3cc(O[C@@H]4CN(Cc5ccc6nc([C@H]7CCOC7)ccc6c5)CC4(F)F)ccc3C2=O)C(=O)N1 (stereo partly drawn) [3-(5-{[(3R)-4,4-difluoro-1-({2-[(3R)-oxolan-3-yl]quinolin-6-yl}methyl)pyrrolidin-3-yl]oxy}-1-oxo-2,3-dihydro-1H-isoindol-2-yl)piperidine-2,6-dione]
293T-LentiX WEE1-ePL Degradation 4 hr (Ymin) [1, 4]: 30.81
DC50 [1]: 8.49 nM
EC50 [2]: 8.42 nM
MKN45 Cell Prolif. 120 hr (Ymin-Obs) [2]: 8.764

O=C1CCC(N2Cc3cc(O[C@@H]4CN(Cc5ccc6nc([C@@H]7CCOC7)ccc6c5)CC4(F)F)ccc3C2=O)C(=O)N1 (stereo partly drawn) [3-(5-{[(3R)-4,4-difluoro-1-({2-[(3S)-oxolan-3-yl]quinolin-6-yl}methyl)pyrrolidin-3-yl]oxy}-1-oxo-2,3-dihydro-1H-isoindol-2-yl)piperidine-2,6-dione]
293T-LentiX WEE1-ePL Degradation 4 hr (Ymin) [1, 4]: 30.61
DC50 [1]: 8.39 nM
EC50 [2]: 9.93 nM
MKN45 Cell Prolif. 120 hr (Ymin-Obs) [2]: 9.159

O=C1CCC(N2Cc3cc(O[C@@H]4CN(Cc5ccc6nc(C7CCOCC7)ccc6c5)CC4(F)F)ccc3C2=O)C(=O)N1 (stereo partly drawn) [3-(5-{[(3R)-4,4-difluoro-1-{[2-(oxan-4-yl)quinolin-6-yl]methyl}pyrrolidin-3-yl]oxy}-1-oxo-2,3-dihydro-1H-isoindol-2-yl)piperidine-2,6-dione]
293T-LentiX WEE1-ePL Degradation 4 hr (Ymin) [1, 3]: 27.9
DC50 [1]: 39.1 nM
EC50 ([2]; growth inhibition): 21.3 nM
MKN45 Cell Prolif. 120 hr (Ymin-Obs) [2]: 10.78

O=C1CCC(N2Cc3cc(O[C@@H]4CN(Cc5ccc6nc([C@H]7CCOC7)ccc6c5)C[C@H]4F)ccc3C2=O)C(=O)N1 (stereo partly drawn) [3-(5-{[(3R,4R)-4-fluoro-1-({2-[(3R)-oxolan-3-yl]quinolin-6-yl}methyl)pyrrolidin-3-yl]oxy}-1-oxo-2,3-dihydro-1H-isoindol-2-yl)piperidine-2,6-dione]
293T-LentiX WEE1-ePL Degradation 4 hr (Ymin) [1, 4]: 34.71
DC50 [1]: 8.43 nM
EC50 [2]: 18.7 nM
MKN45 Cell Prolif. 120 hr (Ymin-Obs) [2]: 20.39

O=C1CCC(N2Cc3cc(O[C@@H]4CN(Cc5ccc6nc([C@@H]7CCOC7)ccc6c5)C[C@H]4F)ccc3C2=O)C(=O)N1 (stereo partly drawn) [3-(5-{[(3R,4R)-4-fluoro-1-({2-[(3S)-oxolan-3-yl]quinolin-6-yl}methyl)pyrrolidin-3-yl]oxy}-1-oxo-2,3-dihydro-1H-isoindol-2-yl)piperidine-2,6-dione]
293T-LentiX WEE1-ePL Degradation 4 hr (Ymin) [1, 3]: 29.32
DC50 [1]: 9.69 nM
EC50 ([2]; growth inhibition): 29.1 nM
MKN45 Cell Prolif. 120 hr (Ymin-Obs) [2]: 20.1

O=C1CCC(N2Cc3cc(O[C@@H]4CN(Cc5ccc6nc(C7CCOCC7)ccc6c5)C[C@H]4F)ccc3C2=O)C(=O)N1 (stereo partly drawn) [3-(5-{[(3R,4R)-4-fluoro-1-{[2-(oxan-4-yl)quinolin-6-yl]methyl}pyrrolidin-3-yl]oxy}-1-oxo-2,3-dihydro-1H-isoindol-2-yl)piperidine-2,6-dione]
293T-LentiX WEE1-ePL Degradation 4 hr (Ymin) [1, 3]: 36.81
DC50 [1]: 14.6 nM
EC50 ([2]; growth inhibition): 28.6 nM
MKN45 Cell Prolif. 120 hr (Ymin-Obs) [2]: 30.89

CO[C@@H]1CN(Cc2ccc3nc(C4CCOCC4)ccc3c2)C[C@H]1Oc1ccc2c(c1)CN(C1CCC(=O)NC1=O)C2=O (stereo partly drawn) [3-(5-{[(3R,4R)-4-methoxy-1-{[2-(oxan-4-yl)quinolin-6-yl]methyl}pyrrolidin-3-yl]oxy}-1-oxo-2,3-dihydro-1H-isoindol-2-yl)piperidine-2,6-dione]
293T-LentiX WEE1-ePL Degradation 4 hr (Ymin) [1, 3]: 37.67
DC50 [1]: 11.7 nM
EC50 ([2]; growth inhibition): 16.9 nM
MKN45 Cell Prolif. 120 hr (Ymin-Obs) [2]: 22.78

O=C1CCC(N2Cc3cc(O[C@@H]4CN(Cc5ccc6nc([C@H]7CCOC7)ccc6c5)C[C@@H]4F)ccc3C2=O)C(=O)N1 (stereo partly drawn) [3-(5-{[(3R,4S)-4-fluoro-1-({2-[(3R)-oxolan-3-yl]quinolin-6-yl}methyl)pyrrolidin-3-yl]oxy}-1-oxo-2,3-dihydro-1H-isoindol-2-yl)piperidine-2,6-dione]
293T-LentiX WEE1-ePL Degradation 4 hr (Ymin) [1, 4]: 30.72
DC50 [1]: 3.84 nM
EC50 [2]: 4.96 nM
MKN45 Cell Prolif. 120 hr (Ymin-Obs) [2]: 13.2

O=C1CCC(N2Cc3cc(O[C@@H]4CN(Cc5ccc6nc([C@@H]7CCOC7)ccc6c5)C[C@@H]4F)ccc3C2=O)C(=O)N1 (stereo partly drawn) [3-(5-{[(3R,4S)-4-fluoro-1-({2-[(3S)-oxolan-3-yl]quinolin-6-yl}methyl)pyrrolidin-3-yl]oxy}-1-oxo-2,3-dihydro-1H-isoindol-2-yl)piperidine-2,6-dione]
293T-LentiX WEE1-ePL Degradation 4 hr (Ymin) [1, 4]: 33.6
DC50 [1]: 5.69 nM
EC50 [2]: 9.42 nM
MKN45 Cell Prolif. 120 hr (Ymin-Obs) [2]: 10.88

O=C1CCC(N2Cc3cc(O[C@@H]4CN(Cc5ccc6nc(C7CCOCC7)ccc6c5)C[C@@H]4F)ccc3C2=O)C(=O)N1 (stereo partly drawn) [3-(5-{[(3R,4S)-4-fluoro-1-{[2-(oxan-4-yl)quinolin-6-yl]methyl}pyrrolidin-3-yl]oxy}-1-oxo-2,3-dihydro-1H-isoindol-2-yl)piperidine-2,6-dione]
293T-LentiX WEE1-ePL Degradation 4 hr (Ymin) [1, 3]: 36
DC50 [1]: 13.2 nM
EC50 ([2]; growth inhibition): 7.13 nM
MKN45 Cell Prolif. 120 hr (Ymin-Obs) [2]: 8.923

CNC1(c2ccc3cc(CN4CC[C@H](Oc5ccc6c(c5)CN(C5CCC(=O)NC5=O)C6=O)C4)ccc3n2)COC1 (stereo partly drawn) [3-(5-{[(3S)-1-({2-[3-(methylamino)oxetan-3-yl]quinolin-6-yl}methyl)pyrrolidin-3-yl]oxy}-1-oxo-2,3-dihydro-1H-isoindol-2-yl)piperidine-2,6-dione]
293T-LentiX WEE1-ePL Degradation 4 hr (Ymin) [1, 3]: 36
DC50 [1]: 37.6 nM
EC50 ([2]; growth inhibition): 19.9 nM
MKN45 Cell Prolif. 120 hr (Ymin-Obs) [2]: 9.16

CN(C)C1CCN(c2ccc3cc(CN4CC[C@H](Oc5ccc6c(c5)CN(C5CCC(=O)NC5=O)C6=O)C4)ccc3n2)CC1 (stereo partly drawn) [3-(5-{[(3S)-1-({2-[4-(dimethylamino)piperidin-1-yl]quinolin-6-yl}methyl)pyrrolidin-3-yl]oxy}-1-oxo-2,3-dihydro-1H-isoindol-2-yl)piperidine-2,6-dione]
293T-LentiX WEE1-ePL Degradation 4 hr (Ymin) [1, 4]: 32.07
DC50 [1]: 26.2 nM
EC50 [2]: 19.7 nM
MKN45 Cell Prolif. 120 hr (Ymin-Obs) [2]: 15.14

CNC1CCN(c2ccc3cc(CN4CC[C@H](Oc5ccc6c(c5)CN(C5CCC(=O)NC5=O)C6=O)C4)ccc3n2)CC1 (stereo partly drawn) [3-(5-{[(3S)-1-({2-[4-(methylamino)piperidin-1-yl]quinolin-6-yl}methyl)pyrrolidin-3-yl]oxy}-1-oxo-2,3-dihydro-1H-isoindol-2-yl)piperidine-2,6-dione]
293T-LentiX WEE1-ePL Degradation 4 hr (Ymin) [1, 4]: 38.12
DC50 [1]: 64.4 nM
EC50 [2]: 84.9 nM
MKN45 Cell Prolif. 120 hr (Ymin-Obs) [2]: 25.09

COC[C@@H]1CCCC[C@H]1c1ccc2cc(CN3CC[C@H](Oc4ccc5c(c4)CN(C4CCC(=O)NC4=O)C5=O)C3)ccc2n1 (stereo partly drawn) [3-(5-{[(3S)-1-({2-[(1R,2R)-2-(methoxymethyl)cyclohexyl]quinolin-6-yl}methyl)pyrrolidin-3-yl]oxy}-1-oxo-2,3-dihydro-1H-isoindol-2-yl)piperidine-2,6-dione]
293T-LentiX WEE1-ePL Degradation 4 hr (Ymin) [1, 4]: 20.92
DC50 [1]: 3.65 nM
EC50 [2]: 2.53 nM
MKN45 Cell Prolif. 120 hr (Ymin-Obs) [2]: 12.91

CO[C@H]1CCCC[C@@H]1c1ccc2cc(CN3CC[C@H](Oc4ccc5c(c4)CN(C4CCC(=O)NC4=O)C5=O)C3)ccc2n1 (stereo partly drawn) [3-(5-{[(3S)-1-({2-[(1R,2S)-2-methoxycyclohexyl]quinolin-6-yl}methyl)pyrrolidin-3-yl]oxy}-1-oxo-2,3-dihydro-1H-isoindol-2-yl)piperidine-2,6-dione]
293T-LentiX WEE1-ePL Degradation 4 hr (Ymin) [1, 4]: 25.39
DC50 [1]: 4.52 nM
EC50 [2]: 7.63 nM
MKN45 Cell Prolif. 120 hr (Ymin-Obs) [2]: 23.82

CO[C@H]1CCC[C@@H]1c1ccc2cc(CN3CC[C@H](Oc4ccc5c(c4)CN(C4CCC(=O)NC4=O)C5=O)C3)ccc2n1 (stereo partly drawn) [3-(5-{[(3S)-1-({2-[(1R,2S)-2-methoxycyclopentyl]quinolin-6-yl}methyl)pyrrolidin-3-yl]oxy}-1-oxo-2,3-dihydro-1H-isoindol-2-yl)piperidine-2,6-dione]
293T-LentiX WEE1-ePL Degradation 4 hr (Ymin) [1, 4]: 30.79
DC50 [1]: 4.34 nM
EC50 [2]: 5.54 nM
MKN45 Cell Prolif. 120 hr (Ymin-Obs) [2]: 8.858

Source: patent US20240067632A1, “WEE1 Degrading Compounds and Uses Thereof” (Bristol-Myers Squibb Company, priority 2022, published 2024)
